Laboratory results from patent US11325913B2, “Compounds and methods for the treatment of malaria” (THE BROAD INSTITUTE, INC., priority 2013, dated 2022).

How the values were obtained:
[1] = tested on: P. berghei (ANKA GFP-luc) blood stage parasites; assay: Single dose in vivo efficacy, P. berghei blood stage, bioluminescence imaging; parameters: species or system CD-1 mice
Protocol: CD-1 mice (female, 6-7-week-old) were inoculated with 1×10^6 P. berghei (ANKA GFP-luc) blood stage parasites intravenously 24 hours before treatment and compounds were administered as a single 100 or 50 mg/kg dose orally at 0 hour. Parasitemia was monitored by the In vivo Imaging System (IVIS 100, Xenogen; Caliper Life Science) to acquire the bioluminescence signal. Animals with parasitemia exceeding 25% were euthanized.
Infection proceeds rapidly in untreated mice (control), which were euthanized around day 6 of the study. Compound 37 and 68 were tested at different times; thus the artesunate control (ART) is shown for each compound. […] All images are normalized to the same color scale.

P. berghei strain ANKA = assay: In vivo antimalarial activity, mice infected with P. berghei strain ANKA, three daily oral doses; parameters: species or system NMVRI mice; settings: 50 mg/kg orally, three consecutive daily doses (24, 48, 72 h after infection), day 4, relative to control group
Protocol: In vivo antimalarial activity for certain compounds of the invention was assessed for groups of three-five female NMVRI mice ([…]) intravenously infected on day 0 with P. berghei strain ANKA (2×10^7 parasitized erythrocytes per ml). In control mice, parasitemia typically rose to ˜40% by day 3 after infection, and control mice died between day 5 and day 7 after infection. Compounds with a dosage of 50 mg/kg were formulated in 7% Tween80/3% ethanol and were administered orally as three consecutive daily doses (24, 48, and 72 h after infection). The blood smears were collected and stained on day 4 after infection. The degree of infection (parasitemia expressed as percent infected erythrocytes) was determined microscopically, with a detection limit of 1 parasite in 10,000 erythrocytes (that is, 0.01%). Activity was calculated as the difference between the mean percent parasitemia for the control and treated groups expressed as a percent relative to the control group. Using this method, a compound of the invention (8R,9R,10S)-10-(hydroxymethyl)-N-(4-methoxyphenyl)-9-(4-(phenylethynyl)phenyl)-1,6-diazabicyclo[6.2.0]decane-6-carboxamide (compound 27) reduced parasitaemia by 57% on day 4. […] Quantification was conducted by comparison to a calibration curve prepared using blank plasma and processed in the same way as the samples.

P. falciparum Dd2 = assay: Activity against the Dd2 strain of P. falciparum (SYBR Green I, 72 h); assay type: cell-based; settings: P. falciparum Dd2, 72 h incubation
Summary of the method: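 Parasites in human RBCs at 1% parasitemia and 1.0% hematocrit, exposed to compounds (0.125% DMSO) for 72 h at 37°C under 93% N2/4% CO2/3% O2. SYBR Green I in saponin/Triton lysis buffer added, 24 h staining, fluorescence read at 485/530 nm. EC50 derived against 20 μM mefloquine background and DMSO baseline.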

[2] = Plasmodium falciparum, DD2, 72 h

Compound | EC50 (P. falciparum Dd2; [2]) | further results
C[C@H]1[C@H](OC(=O)CCC(=O)O)O[C@@H]2O[C@@]3(C)CC[C@H]4[C@H](C)CC[C@@H]1[C@@]24OO3 [ART, artesunate, reference compound] | – | effect on parasites ([1]; single 100 mg/kg dose): rapid suppression of parasites, but, due to its short half-life, the parasites re-emerge quickly
COc1ccc(NC(=O)N2CCCCN3[C@H](CO)[C@H](c4ccc(C#Cc5ccccc5)cc4)[C@@H]3C2)cc1 [Compound 27, (8R,9R,10S)-10-(hydroxymethyl)-N-(4-methoxyphenyl)-9-(4-(phenylethynyl)phenyl)-1,6-diazabicyclo[6.2.0] decane-6-carboxamide] | 0.004 µM | reduction of parasitaemia (P. berghei strain ANKA): 57%
COc1ccc(NC(=O)N2CCCCN3[C@H](CN(C)C)[C@H](c4ccc(C#Cc5ccccc5)cc4)[C@@H]3C2)cc1 [Compound 68, (8R,9S,10S)-10-[(dimethylamino)methyl]-N-(4-methoxyphenyl)-9-[4-(2-phenylethynyl)phenyl]-1,6-diazabicyclo[6.2.0] decane-6-carboxamide] | 0.003 µM | cure of the infected animals ([1]; single 50 mg/kg oral dose): 100%; ED100 ([1]; single oral dose, P. berghei blood stage): ≤ 50 mg/kg
COc1ccc(NC(=O)N2CCCCN3[C@H](CO)[C@H](c4ccc(-c5ccn(-c6ccccc6)n5)cc4)[C@@H]3C2)cc1 [Compound 77, (8R,9R,10S)-10-(hydroxymethyl)-N-(4-methoxyphenyl)-9-[4-(1-phenyl-1H-pyrazol-3-yl)phenyl]-1,6-diazabicyclo[6.2.0] decane-6-carboxamide] | 4.89 µM | –
O=C(Nc1ccccc1)N1CCCCN2[C@H](CO)[C@H](c3ccc(C#Cc4ccccc4)cc3)[C@@H]2C1 [Compound 78, (8R,9R,10S)-10-(hydroxymethyl)-N-phenyl-9-[4-(2-phenylethynyl)phenyl]-1,6-diazabicyclo[6.2.0] decane-6-carboxamide] | – | EC50 (P. falciparum Dd2): 0.061 µM
COc1ccc(NC(=O)N2CCCN3[C@H](CO)[C@H](c4ccc(C#Cc5ccccc5)cc4)[C@@H]3C2)cc1 [Compound 79, (7R,8R,9S)-9-(hydroxymethyl)-N-(4-methoxyphenyl)-8-[4-(2-phenylethynyl)phenyl]-1,5-diazabicyclo[5.2.0] nonane-5-carboxamide] | 0.85 µM | –
COc1ccc(NC(=O)N2CCCCN3[C@H](COCCC(=O)O)[C@H](c4ccc(C#Cc5ccccc5)cc4)[C@@H]3C2)cc1 [Compound 80, 3-(((8R,9R,10S)-6-((4-methoxyphenyl)carbamoyl)-9-(4-(phenylethynyl)phenyl)-1,6-diazabicyclo[6.2.0]decan-10-yl)methoxy)propanoic acid] | 0.023 µM | –
COc1ccc(NC(=O)N2CCCCN3[C@H](CO)[C@H](c4ccc(C#Cc5ccccc5)cn4)[C@@H]3C2)cc1 [Compound 81, (8R,9R,10S)-10-(hydroxymethyl)-N-(4-methoxyphenyl)-9-(5-(phenylethynyl)pyridin-2-yl)-1,6-diazabicyclo[6.2.0] decane-6-carboxamide] | 0.034 µM | –
COc1ccc(NC(=O)N2CCCCN3[C@@H](CNC(C)=O)[C@H](c4ccc(C#Cc5ccccc5)cc4)[C@@H]3C2)cc1 [Compound 82, (8R,9S,10R)-10-(acetamidomethyl)-N-(4-methoxyphenyl)-9-(4-(phenylethynyl)phenyl)-1,6-diazabicyclo[6.2.0] decane-6-carboxamide] | 0.003 µM | –
O=C(Nc1ccc(OCCN2CCOCC2)cc1)N1CCCCN2[C@H](CO)[C@H](c3ccc(C#Cc4ccccc4)cc3)[C@@H]2C1 [Compound 83, (8R,9R,10S)-10-(hydroxymethyl)-N-(4-(2-morpholinoethoxy)phenyl)-9-(4-(phenylethynyl)phenyl)-1,6-diazabicyclo[6.2.0] decane-6-carboxamide] | 0.024 µM | –
COc1ccc(NC(=O)N2CCCCN3[C@@H](CN4CCOCC4)[C@H](c4ccc(C#Cc5ccccc5)cc4)[C@@H]3C2)cc1 [Compound 84, (8R,9S,10R)-N-(4-methoxyphenyl)-10-(morpholinomethyl)-9-(4-(phenylethynyl)phenyl)-1,6-diazabicyclo[6.2.0] decane-6-carboxamide] | 0.052 µM | –
COc1ccc(NC(=O)N2CCCCN3[C@@H](COCC(=O)O)[C@H](c4ccc(C#Cc5ccccc5)cc4)[C@@H]3C2)cc1 [Compound 85, 2-(((8R,9R,10R)-6-((4-methoxyphenyl)carbamoyl)-9-(4-(phenylethynyl)phenyl)-1,6-diazabicyclo[6.2.0]decan-10-yl)methoxy)acetic acid] | 0.0004 µM | –
COc1ccc(NC(=O)N2CCCCN3[C@@H](COCCC(=O)O)[C@H](c4ccc(C#Cc5ccccc5)cc4)[C@@H]3C2)cc1 [Compound 86, 3-(((8R,9R,10R)-6-((4-methoxyphenyl)carbamoyl)-9-(4-(phenylethynyl)phenyl)-1,6-diazabicyclo[6.2.0]decan-10-yl)methoxy)propanoic acid] | 0.002 µM | –
COC(=O)CCOC[C@@H]1[C@H](c2ccc(C#Cc3ccccc3)cc2)[C@@H]2CN(C(=O)Nc3ccc(OC)cc3)CCCCN12 [Compound 87, methyl 3-(((8R,9R,10S)-6-((4-methoxyphenyl)carbamoyl)-9-(4-(phenylethynyl)phenyl)-1,6-diazabicyclo[6.2.0]decan-10-yl)methoxy)propanoate] | 0.001 µM | –
CNC[C@H]1[C@H](c2ccc(C#Cc3ccccc3)cc2)[C@@H]2CN(C(=O)Nc3ccc(OC)cc3)CCCCN12 [Compound 88, (8R,9S,10R)-N-(4-methoxyphenyl)-10-((methylamino)methyl)-9-(4-(phenylethynyl)phenyl)-1,6-diazabicyclo[6.2.0] decane-6-carboxamide] | 0.025 µM | –
COc1ccc(NC(=O)N2CCCCN3[C@H](COCCC(=O)N4CCOCC4)[C@H](c4ccc(C#Cc5ccccc5)cc4)[C@@H]3C2)cc1 [Compound 89, (8R,9R,10S)-N-(4-methoxyphenyl)-10-((3-morpholino-3-oxopropoxy)methyl)-9-(4-(phenylethynyl)phenyl)-1,6-diazabicyclo[6.2.0] decane-6-carboxamide] | 0.008 µM | –
COc1ccc(NC(=O)N2CCCCN3[C@H](CNCC(F)(F)F)[C@H](c4ccc(C#Cc5ccccc5)cc4)[C@@H]3C2)cc1 [Compound 90, (8R,9S,10S)-N-(4-methoxyphenyl)-9-(4-(phenylethynyl)phenyl)-10-(((2,2,2-trifluoroethyl)amino)methyl)-1,6-diazabicyclo[6.2.0] decane-6-carboxamide] | 0.228 µM | –
COc1ccc(NC(=O)N2CCCCN3[C@@H](COCCC(=O)N4CCOCC4)[C@H](c4ccc(C#Cc5ccccc5)cc4)[C@@H]3C2)cc1 [Compound 91, (8R,9R,10R)-N-(4-methoxyphenyl)-10-((3-morpholino-3-oxopropoxy)methyl)-9-(4-(phenylethynyl)phenyl)-1,6-diazabicyclo[6.2.0] decane-6-carboxamide] | 0.014 µM | –
COc1ccc(NC(=O)N2CCCCN3[C@@H](CN(C)C)[C@H](c4ccc(C#Cc5ccccc5)cc4)[C@@H]3C2)cc1 [Compound 92, (8R,95S,10R)-10-((dimethylamino)methyl)-N-(4-methoxyphenyl)-9-(4-(phenylethynyl)phenyl)-1,6-diazabicyclo[6.2.0] decane-6-carboxamide] | 0.108 µM | –
N#Cc1ccc(NC(=O)N2CCCCN3[C@H](CO)[C@H](c4ccc(C#Cc5ccccc5)cc4)[C@@H]3C2)cc1 [Compound 93, (8R,9R,10S)-N-(4-cyanophenyl)-10-(hydroxymethyl)-9-(4-(phenylethynyl)phenyl)-1,6-diazabicyclo[6.2.0] decane-6-carboxamide] | 0.138 µM | –
CCN(CC)C[C@@H]1[C@H](c2ccc(C#Cc3ccccc3)cc2)[C@@H]2CN(C(=O)Nc3ccc(OC)cc3)CCCCN12 [Compound 94, (8R,9S,10S)-10-((diethylamino)methyl)-N-(4-methoxyphenyl)-9-(4-(phenylethynyl)phenyl)-1,6-diazabicyclo[6.2.0] decane-6-carboxamide] | 0.014 µM | –
COc1ccc(NC(=O)N(C)C[C@H]2[C@@H](c3ccc(C#Cc4ccccc4)cc3)[C@@H](CO)N2C)cc1 [Compound 95, 1-(((2R,3R,4S)-4-(hydroxymethyl)-1-methyl-3-(4-(phenylethynyl)phenyl)azetidin-2-yl)methyl)-3-(4-methoxyphenyl)-1-methylurea] | 5 µM | –
